Test results taken from article PMC9916163, “Evaluation of the Cytotoxic Effect of Pd2Spm against Prostate Cancer through Vibrational Microspectroscopies” (International Journal of Molecular Sciences, 2023).
Where two headings read alike, the source gives them in different places.

Legend:
PC-3 [1] = test system: PC-3; set-up: method as in PMID 17541592; settings: 72 h, SRB method; read-out: Value previously reported (IC50) PC-3; cited from earlier work
PC-3 cell line = assay: MTT cytotoxicity assay, PC-3 cells; type: cell-based, human; settings: prostate cancer cells, read-out: Half maximal inhibitory concentration (IC50) PC-3
Method: (§1) The human prostate cancer (PC-3 and LNCaP) and non-tumorigenic (PNT-2) cell lines were obtained from the ECCAC Culture Collections and supplied by Sigma-Aldrich Chemical S.A. (Sintra, Portugal). They were cultured as monolayers, at 37 °C, in a humidified atmosphere of 5% CO2. The cultures were maintained in RPMI-1640 culture medium, supplemented with 10% (v/v) heat-inactivated FBS and 1% (v/v) penicillin/streptomycin. The cells were subcultured at 80% confluence, using 0.05% trypsin-EDTA (1×) in PBS.
(§2) For all cell lines (PC-3, LNCaP and PNT-2), cell cultures were established in 96-well plates (100 µL/well) at a density of 3 × 10^4 cells/cm^2, and were allowed to attach for 24 h. Triplicates were treated for different incubation periods (three independent experiments) with a range of concentrations between 2 and 32 µM of the tested compounds (cisplatin and Pd2Spm). According to the population doubling time for all cell lines (ca. 24 h), 24, 48, and 72 h timepoints after drug administration were chosen.
(§3) In order to evaluate cell viability, the MTT assay was used. Briefly, at each time-point, the growth media was removed, cells were washed with PBS and MTT solution (2.5 mg/mL) was added to each well (100 µL). After 3 h of incubation at 37 °C, the formazan crystals were solubilized in DMSO (100 µL), and the absorbance was measured at 570 nm.
(§4) Cells viability data results are expressed as mean ± standard error of the mean (SEM) and compared with non-treated controls. Statistical analysis was carried out through one-way ANOVA followed by Tukey’s multiple comparison test. A p-value < 0.05 was considered statistically significant.

PNT-2 cell line = assay: MTT cytotoxicity assay, PNT-2 cells; type: cell-based, human; settings: prostate non-cancer cells, read-out: Half maximal inhibitory concentration (IC50) PNT-2
Method: as §1, §2
In order to evaluate cell viability, the MTT assay was used. […] After 3 h of incubation at 37 °C, the formazan crystals were solubilized in DMSO (100 µL), and the absorbance was measured at 570 nm.
Cells viability data results are expressed as mean ± standard error of the mean (SEM) and compared with non-treated controls. […]

PC-3 [2] = test system: PC-3; set-up: method as in PMID 24366574; settings: 48 h, MTT method; read-out: Value previously reported (IC50) PC-3; cited from earlier work
LNCaP cell line = assay: MTT cytotoxicity assay, LNCaP cells; type: cell-based, human; settings: prostate cancer cells, read-out: Half maximal inhibitory concentration (IC50) LNCaP
Method: as §1, §2, §3, §4

PNT-2 = test system: PNT-2; set-up: method as in PMID 34277574; settings: 96 h, MTT method; read-out: Value previously reported (IC50) PNT-2; cited from earlier work
LNCaP = test system: LNCaP; set-up: method as in PMID 17541592; settings: 48 h, SRB method; read-out: Value previously reported (IC50) LNCaP; cited from earlier work

Q: Which results are given for `N.N.[Cl][Pt][Cl]` [Cisplatin, cis-dichlorodiammine platinum(II)]?
A: IC50 (PC-3 [1]): 1 µM; IC50 (PC-3 cell line; 24 h incubation): 25.6 µM; IC50 (PC-3 cell line; 48 h incubation): 3 µM; IC50 (PC-3 cell line; 72 h incubation): 0.7 µM; IC50 (PNT-2 cell line; 48 h incubation): 5.2 µM; IC50 (PNT-2 cell line; 72 h incubation): 2.4 µM; IC50 (PC-3 [2]): 10.6 µM; IC50 (LNCaP cell line; 24 h incubation): 13.6 µM; IC50 (LNCaP cell line; 48 h incubation): 7.3 µM; IC50 (LNCaP cell line; 72 h incubation): 2.7 µM; IC50 (PNT-2): 8.5 µM; IC50 (LNCaP): 3.7 µM
